The source of these data is patent US20210253718A1, “FRIZZLED5 PROTEIN-BINDING AGENTS” (Modmab Therapeutics Corporation, priority 2016, published 2021).

Assay [1] concerns the target T1, FZD6 CRD (Homo sapiens, UniProt O60353).
T1 construct: S20-P146; GPI anchor signal (C); expressed in transfected cells; host or cells: CHO cells, lentiviral pLenti-puro
T1 sequence (O60353 20-146): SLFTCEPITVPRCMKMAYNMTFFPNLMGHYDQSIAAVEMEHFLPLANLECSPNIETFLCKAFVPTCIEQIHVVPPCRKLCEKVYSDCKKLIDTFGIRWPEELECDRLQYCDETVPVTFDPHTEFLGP
Put plainly: Immunofluorescence of anti-FZD5 Fab binding to CHO cells overexpressing Frizzled CRD. The arrangement: key: −: no binding; +: very weak binder; ++: weak binder; +++: good binder; ++++: very good binder. The protocol: (§1) Plasmids: pLCKO lentiviral vector used for knockout (TKO) library construction and expression of individual gRNAs was constructed as described previously (Hart et al., 2015). Briefly, single guide RNA (sgRNA) scaffold was amplified from px330 (Addgene 42230) and cloned into pLKO.TRC005 lentiviral vector (Broad Institute, Cambridge, Mass.) using AgeI/EcoRI restriction sites. BfuAI sites were added at the 5′ end of the sgRNA scaffold for cloning the TKO library or individual gRNA target sequences. Lenti Cas9-2A-BsdR vector used to generate Cas9 stable expression cell lines was constructed as described previously (Hart et al., 2015). Briefly, lentiCRISPR pXPR_001 (Addgene 49535) was modified through removal of the sgRNA scaffold region through NdeI/EcoRI digest and blunt ends generation using Large Klenow Fragment (NEB). 2A-puro was replaced with 2A-BsdR by PCR using the NheI/MluI sites. Each of the 10 human Frizzled cysteine rich domains (CRDs) were cloned into the lentiviral expression plasmid pLenti-puro in the following cassette: FZD_CRD-MYC-GPI.
(§2) To confirm that the FZD5-WNT7B circuit is not driven simply by expression and rule out the possibility of a disconnect between RNA and protein levels for the Wnt receptors in HPAF-II cells, a panel of recombinant Fabs were generated, alternatively referred to herein as ‘Frizzled profiler’, that can detect and discriminate all but one of the ten Frizzled receptors. […] To characterize the binding specificity of these Fabs on cells, a panel of 10 CHO cell lines was generated, each expressing the CRD domain of a different myc-tagged Frizzled family member anchored at the plasma membrane through a GPI anchor (CHO-myc-FZDGPI). Despite the high sequence identity between Frizzled family members (FIG. 7A, FIG. 7B), selective Fabs were identified for FZD4, FZD5, FZD6 and FZD10 as assessed by immunofluorescence and flow cytometry (FIG. 7D and FIG. 8). […] The FZD8 CRD is most homologous to that of FZD5 (FIG. 7B). These Fabs can be used to discriminate expression of FZD1, FZD2, FZD4, FZD5, FZD6, FZD7, FZD8, FZD9 and FZD10 (FIG. 7D and FIG. 8). The ‘Frizzled profiler’ therefore consists of 10 different Fabs that can be used to discriminate expression of 9 different Frizzled family members. The Frizzled profiler was then used to confirm that HPAF-II cells express FZD1, FZD5, FZD6 and possibly FZD8 (FIG. 7E).
(§3) The binding of anti-FZD5 Fabs to cell surface-expressed Frizzled protein was further determined for each member of the Frizzled family via flow cytometry and immunofluorescence analysis of a panel of 10 CHO cell lines, each ectopically over-expressing the extracellular cysteine-rich domain (CRD) of a different Frizzled protein family member.

Assay [2] addresses T2, FZD8 CRD (Homo sapiens, UniProt Q9H461).
T2 construct: K31-D155; GPI anchor signal (C); expressed in transfected cells; host or cells: CHO cells, lentiviral pLenti-puro
T2 sequence (Q9H461 31-155): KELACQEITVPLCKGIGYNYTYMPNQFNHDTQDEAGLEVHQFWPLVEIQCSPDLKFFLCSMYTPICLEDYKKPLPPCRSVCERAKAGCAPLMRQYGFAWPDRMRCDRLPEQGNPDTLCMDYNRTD
The description is as above. The arrangement: key: −: no binding; +: very weak binder; ++: weak binder; +++: good binder; ++++: very good binder. Here is the method:
as §1, §2, §3

The target of assay [3] is T3, FZD5 CRD (Homo sapiens, UniProt Q13467).
T3 construct: K29-T156; GPI anchor signal (C); expressed in transfected cells; host or cells: CHO cells, lentiviral pLenti-puro
T3 sequence (Q13467 29-156): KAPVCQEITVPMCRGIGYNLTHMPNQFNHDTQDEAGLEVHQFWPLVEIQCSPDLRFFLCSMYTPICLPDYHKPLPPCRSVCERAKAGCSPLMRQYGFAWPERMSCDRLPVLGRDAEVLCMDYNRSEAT
The assay is described as above. The arrangement: key: −: no binding; +: very weak binder; ++: weak binder; +++: good binder; ++++: very good binder. The protocol:
as §1, §2, §3

Assay [4] addresses T4, FZD9 CRD (Homo sapiens, UniProt O00144).
T4 construct: G35-A161; GPI anchor signal (C); expressed in transfected cells; host or cells: CHO cells, lentiviral pLenti-puro
T4 sequence (O00144 35-161): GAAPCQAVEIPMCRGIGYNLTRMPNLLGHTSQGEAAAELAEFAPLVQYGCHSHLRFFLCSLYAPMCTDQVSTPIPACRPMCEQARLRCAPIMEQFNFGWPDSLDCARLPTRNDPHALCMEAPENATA
Described as above. More on the design: key: −: no binding; +: very weak binder; ++: weak binder; +++: good binder; ++++: very good binder. Here is the method: as §1, §2, §3

The target of assay [5] is T5, FZD3 CRD (Homo sapiens, UniProt Q9NPG1).
T5 construct: CRD of FZD1, FZD2, FZD3, FZD4, FZD5, FZD6, FZD7, FZD8, FZD9 or FZD10; GPI anchor signal (C); expressed in transfected cells; host or cells: CHO cells, lentiviral pLenti-puro
T5 sequence (Q9NPG1 23-136 limits assumed): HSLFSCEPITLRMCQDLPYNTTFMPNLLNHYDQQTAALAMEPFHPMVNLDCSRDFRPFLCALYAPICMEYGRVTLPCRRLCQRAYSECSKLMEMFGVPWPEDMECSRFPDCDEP
Described as above. The arrangement: key: −: no binding; +: very weak binder; ++: weak binder; +++: good binder; ++++: very good binder. Here is the method:
as §1, §2, §3

Assay [6] has as its system RWP1 cells. The experiment in a line: Effect of anti-FZD5 Fabs on proliferation of pancreatic cancer cell lines (percent growth inhibition). The assay is classed as cell-based, human. Conditions: Fab 10 μg/ml. The protocol:
(§4) The effect of presently disclosed anti-FZD5 Fabs on proliferation of RNF43 loss-of-function mutant pancreatic cancer cell lines HPAFII, PATU8988S and ASPC-1; and on pancreatic cancer cell line RWP1, was tested at […] and 10 μg/ml.

In assay [7] the test system is PATU8988S cells. The description is as above. Type of assay: cell-based, human. The note with it: Fab 10 μg/ml. The protocol: as §4
Assay [8] concerns HPAFII cells. The assay is described as above. Type of assay: cell-based, human. The protocol: as §4
For assay [9], the system named is ASPC-1 cells. Described as above. The note with it: Fab 10 μg/ml. Type of assay: cell-based, human. Here is the method:
as §4

For assay [10], the system named is CHO cells not expressing Frizzled CRD. Put plainly: Flow cytometry of anti-FZD5 Fab binding to CHO cells not expressing Frizzled CRD (background).
Description: as §3

As for “Fab-2931: anti-FZD5 Fab with antibody variable region Fv-2931; CDR SEQ ID NOs: 35, 36, 70, 102, 146, 176 (CDR 1 QSVSSA; CDR 2 SAS; CDR 3 QQSSYSLIT; CDR 4 GFNLSYSS; CDR 5 ISPYSGST; CDR 6 ARGSYWYVGGGWWVSGHGGMDY)”, in assay [1], the “Immunofluorescence binding, Frizzled CRD overexpressed on CHO cells: FZD6” value is recorded as “−”. Besides, the “Immunofluorescence binding, Frizzled CRD overexpressed on CHO cells: FZD8” value in [2] is recorded as “−”. The “Immunofluorescence binding, Frizzled CRD overexpressed on CHO cells: FZD5” value in assay [3] is given as “++++”. Besides, in [4], the “Immunofluorescence binding, Frizzled CRD overexpressed on CHO cells: FZD9” value was “−”. Also, in [5], the “Immunofluorescence binding, Frizzled CRD overexpressed on CHO cells: FZD3” value is listed as “−”. In addition, the “percent growth inhibition, RWP1 10 μg/ml” value in assay [6] is 18.70%. Moreover, the “percent growth inhibition, PATU8988s 10 μg/ml” value in [7] is given as −17.27%. For the same substance, in assay [8] (Fab 2 μg/ml), the “percent growth inhibition, HPAFII 2 μg/ml” value is listed as −19.38%. The “percent growth inhibition, HPAFII 10 μg/ml” value in assay [8] (Fab 10 μg/ml) is on record as 11.37%. Moreover, in [9], the “percent growth inhibition, ASPC-1 10 μg/ml” value is 39.20%. For the same substance, the “Median fluorescence, Frizzled CRD overexpressed on CHO cells: None” value in [10] is 3.11.
